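Growth conditions: 96-well plates. Treatment: test compound, 48 hours, 5 concentrations. Analysis: linear interpolation between bracketing concentrations; unreached endpoints set to highest concentration. Abbreviation: GI50, concentration required for 50% inhibition of growth.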 Active and inactive are the calls of the source. Cut-off read from the data, not from the text of the source: active = GI50 up to about 1.1 µM and inactive = higher.

Among the test systems are NCI-H460; HCT-15; CAKI-1; HT-29; M14; SW-620; IGROV-1; UO-31; HOP-62; NCI-H522; OVCAR-5; Malme-3M; UACC-257; SNB-75; T47D; HCT-116; A498.
Holding throughout (assay): NCI-60 cell line screen, 48 h

Turning to `CCCCCCCCSC1=C(Cl)C(=O)C(OC)=C(OC)C1=O`, the GI50 was 15.4 µM (inactive) in the test with NCI-H460; 6.34 µM with HCT-15; 12.3 µM (inactive) with CAKI-1; 16.9 µM (inactive) in the test on HT-29; 2.16 µM (inactive) in the test with M14; 10.6 µM (inactive) in the test with SW-620. The GI50 with IGROV-1 is 14.1 µM (inactive); with UO-31, 12.1 µM (inactive); in the test with HOP-62 it was 17.2 µM (inactive); in the test with NCI-H522, 2.47 µM (inactive); in the test with OVCAR-5 it was 6.67 µM (inactive); in the test with Malme-3M, 7.73 µM (inactive). The GI50 in the test with UACC-257 was 5.6 µM (inactive); in the test on SNB-75 it was 19.1 µM (inactive); with T47D it was 5.08 µM (inactive); in the test with HCT-116, 4.83 µM (inactive); with A498, 12.3 µM (inactive).

For the compound `NCCCC[C@H](N)C(=O)Nc1ccc(-c2nc3ccccc3s2)cc1Cl`, the GI50 in the test with NCI-H460 was 0.271 µM (active); with HCT-15, 5.68 µM; in the test on CAKI-1, 4.85 µM (inactive); with HT-29, 6.79 µM (inactive); in the test with M14 it was 3.55 µM (inactive); in the test with SW-620, 11.5 µM (inactive). In addition, the GI50 in the test on IGROV-1 was < 0.01 µM (active); in the test on UO-31, 6.35 µM (inactive); in the test on HOP-62, 13.2 µM (inactive); in the test with NCI-H522, 4.84 µM (inactive); in the test with OVCAR-5, 0.34 µM (active); in the test on Malme-3M, 15.1 µM (inactive). Also, the GI50 was 14.1 µM (inactive) with UACC-257; 9.77 µM (inactive) in the test on SNB-75; < 0.0478 µM (active) in the test on T47D; 0.713 µM (active) in the test with HCT-116; 0.149 µM (active) in the test on A498.

For the compound `CC1CN=C(Nc2ccc(F)c(Cl)c2)S1` (stereo not drawn), the GI50 in the test with NCI-H460 is > 100 µM (inactive); with HCT-15, 83.4 µM; in the test on CAKI-1, 53.6 µM (inactive); in the test on HT-29, > 100 µM (inactive); in the test with M14 it was > 100 µM (inactive); in the test on SW-620 it was > 100 µM (inactive). Moreover, the GI50 is 81.7 µM (inactive) in the test with IGROV-1; 29.8 µM (inactive) in the test on UO-31; > 100 µM (inactive) with HOP-62; 58.2 µM (inactive) in the test on NCI-H522; > 100 µM (inactive) in the test on OVCAR-5; > 100 µM (inactive) in the test with Malme-3M. The GI50 was 86.5 µM (inactive) with UACC-257; > 100 µM (inactive) with SNB-75; 88.9 µM (inactive) with T47D; 71 µM (inactive) in the test with HCT-116; 62.8 µM (inactive) in the test with A498.

Take `Cc1cc2nc3c(N)nn(CCN(C)C)c3nc2cc1C`: the GI50 in the test with NCI-H460 was 32.8 µM (inactive); in the test on HCT-15, 36.4 µM; in the test on CAKI-1, 39.3 µM (inactive); in the test with HT-29, 27.4 µM (inactive); with M14, 61.2 µM (inactive); in the test with SW-620 it was 38.7 µM (inactive). Moreover, the GI50 was 27 µM (inactive) in the test on IGROV-1; 29 µM (inactive) in the test with UO-31; 26.4 µM (inactive) in the test with HOP-62; 40.1 µM (inactive) in the test on NCI-H522; 52 µM (inactive) in the test on OVCAR-5; 34.2 µM (inactive) in the test on Malme-3M. Further, the GI50 is 41.7 µM (inactive) in the test on UACC-257; 27.4 µM (inactive) in the test on SNB-75; 42.3 µM (inactive) in the test with T47D; 33.1 µM (inactive) with HCT-116; 38.3 µM (inactive) with A498.

`C#C[C@]1(O)CC[C@H]2[C@@H]3CCC4=C/C(=N\OCCN5CCCCC5)CC[C@]4(C)[C@H]3CC[C@@]21C`: the GI50 is 6.78 µM (inactive) with NCI-H460; 7.31 µM in the test with HCT-15; 6.21 µM (inactive) in the test with CAKI-1; 6.67 µM (inactive) in the test on HT-29; 3.27 µM (inactive) with M14; 4.33 µM (inactive) in the test with SW-620. Moreover, the GI50 in the test with IGROV-1 was 7.18 µM (inactive); with UO-31, 4.23 µM (inactive); in the test with HOP-62, 11 µM (inactive); with NCI-H522, 2.47 µM (inactive); in the test on OVCAR-5, 13.5 µM (inactive); in the test on Malme-3M, 8.79 µM (inactive). Further, the GI50 is 3.98 µM (inactive) in the test with UACC-257; 4.3 µM (inactive) in the test with SNB-75; 2.69 µM (inactive) in the test with T47D; 4.31 µM (inactive) with HCT-116; 6.15 µM (inactive) in the test with A498.

As for `COc1ccc(OC)c2sc(N3C(=O)/C(=C/c4cccc([N+](=O)[O-])c4)N=C3c3ccccc3)nc12`, the GI50 in the test with NCI-H460 was 77.1 µM (inactive); in the test on HCT-15 it was 61.5 µM; in the test with CAKI-1 it was > 100 µM (inactive); in the test with HT-29, > 100 µM (inactive); with M14, > 100 µM (inactive); with SW-620, 23.7 µM (inactive). The GI50 in the test with IGROV-1 was 43.4 µM (inactive); with UO-31, > 100 µM (inactive); in the test on HOP-62 it was 54.1 µM (inactive); in the test on NCI-H522, 42.6 µM (inactive); in the test with OVCAR-5, > 100 µM (inactive); with Malme-3M, > 100 µM (inactive). Also, the GI50 in the test with UACC-257 was 38.3 µM (inactive); with SNB-75, 42.7 µM (inactive); in the test on T47D it was 22.3 µM (inactive); with HCT-116, > 100 µM (inactive); in the test on A498 it was 57.8 µM (inactive).

As for `COC(=O)c1c(C)[nH]c2c1cc(O)c1nc(C)c(C)nc12`, the GI50 in the test with NCI-H460 was > 100 µM (inactive); in the test on HCT-15, above 100 µM; in the test on CAKI-1 it was > 100 µM (inactive); with HT-29, > 100 µM (inactive); in the test on M14, > 100 µM (inactive); in the test on SW-620, > 100 µM (inactive). The GI50 with IGROV-1 is > 100 µM (inactive); in the test with UO-31, > 100 µM (inactive); in the test with HOP-62, 18.7 µM (inactive); with NCI-H522 it was 74.8 µM (inactive); in the test with OVCAR-5, 76.7 µM (inactive); in the test on Malme-3M, > 100 µM (inactive). The GI50 in the test with UACC-257 was > 100 µM (inactive); with SNB-75, 19.5 µM (inactive); in the test on T47D it was 47.3 µM (inactive); in the test on HCT-116 it was 42.2 µM (inactive); in the test on A498, 14.8 µM (inactive).

As to `O=C1OC2(C(F)(F)F)Oc3ccccc3CN2C12CCCCC2` (stereo not drawn), the GI50 in the test with NCI-H460 is 22.5 µM (inactive); with HCT-15, 28.2 µM; in the test on CAKI-1 it was 18.7 µM (inactive); with HT-29, 23.7 µM (inactive); with M14 it was 19.5 µM (inactive); in the test with SW-620, 35.6 µM (inactive). For the same compound, the GI50 with IGROV-1 was 48.4 µM (inactive); in the test on UO-31, 22.9 µM (inactive); with HOP-62, 29.2 µM (inactive); in the test on NCI-H522 it was 24.3 µM (inactive); with OVCAR-5, 22 µM (inactive); in the test on Malme-3M it was 18 µM (inactive). In addition, the GI50 in the test on UACC-257 is 27 µM (inactive); with SNB-75, 16 µM (inactive); with T47D, 21.8 µM (inactive); with HCT-116, 20.2 µM (inactive); in the test on A498, 53.8 µM (inactive).

In the case of `O=C(c1ccco1)C1CC(c2ccc3ccccc3c2O)=NN1` (stereo not drawn), the GI50 was > 100 µM (inactive) in the test with NCI-H460; 50.6 µM in the test on HCT-15; > 100 µM (inactive) in the test on CAKI-1; 86.5 µM (inactive) in the test with HT-29; 54.8 µM (inactive) with M14; 84.1 µM (inactive) in the test on SW-620. The GI50 with IGROV-1 was > 100 µM (inactive); with UO-31, 89.7 µM (inactive); with HOP-62 it was > 100 µM (inactive); with NCI-H522, > 100 µM (inactive); with OVCAR-5 it was > 100 µM (inactive); in the test with Malme-3M, > 100 µM (inactive). Also, the GI50 with UACC-257 is 62.2 µM (inactive); in the test with SNB-75, > 100 µM (inactive); in the test on T47D it was 92.7 µM (inactive); in the test on HCT-116, 57.4 µM (inactive); in the test with A498 it was > 100 µM (inactive).
